Measurements: patent publication US20240041042A1, “1-(PYRIDYL)-5-AZINYLPYRAZOLE DERIVATIVES, AND THEIR USE FOR CONTROL OF UNDESIRED PLANT GROWTH” (Bayer Aktiengesellschaft, priority 2020, published 2024)
Read-outs that look alike come from different tables or passages of the source.

Legend:
Assay type in all cases: in vivo
[1] = system: Brassica napus (BRSNW); conditions: crop plant compatibility, in comparison to untreated controls
In short: (§1)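 Crop injury rated visually in percent against untreated plants roughly 3 weeks after treatment (0% no effect, 100% plants dead). Compounds, as WP or EC with 0.5% additive in 600 l/ha water, were applied to the covering soil right after sowing; greenhouse growth. Suffixes a, b, c denote different dosages.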

[2] = system: Glycine max (GLXMA); conditions: pre-emergence, 80 g/ha, crop plant compatibility, in comparison to untreated controls
In short: as §1

[3] = system: Oryza sativa (ORYSA); conditions: pre-emergence, crop plant compatibility, in comparison to untreated controls
In short: as §1

[4] = system: Zea mays (ZEAMX); conditions: pre-emergence, crop plant compatibility, in comparison to untreated controls
In short: as §1

[5] = system: Amaranthus retroflexus (AMARE); assay: Post-emergence herbicidal action against AMARE; conditions: 320 g/ha, visual rating about 3 weeks after treatment
In short: (§2)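 Rates were 320 g/ha or below, applied as aqueous WP/EC spray with 0.5% additive (600 l/ha) onto one-leaf-stage plants. About 3 weeks later in the greenhouse, damage was scored visually against untreated plants on a 0–100% scale, where 100% means plants died.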

[6] = system: Lolium rigidum (LOLRI); assay: Post-emergence herbicidal action against LOLRI; conditions: dosage 320 g/ha
In short: as §2

[7] = system: Pharbitis purpurea (PHBPU); assay: Post-emergence herbicidal action against PHBPU
In short: as §2

[8] = system: Setaria viridis (SETVI); assay: Post-emergence herbicidal action against SETVI; conditions: dosage 320 g/ha
In short: as §2

[9] = system: Oryza sativa (ORYSA); conditions: crop plant compatibility
In short: (§3)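 One-leaf-stage crops (2–3 wk post-sowing, sandy loam, greenhouse) sprayed on green parts; 0.5% additive, 600 l/ha water. Rated by eye ~3 wk later, % vs untreated; suffixes a/b/c mark different dosages.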

[10] = system: Triticum aestivum (TRZAS); conditions: crop plant compatibility, 80 g/ha, effect vs untreated controls
In short: as §3

[11] = system: Zea mays (ZEAMX); conditions: crop plant compatibility, effect vs untreated controls
In short: as §3

[12] = system: Alopecurus myosuroides (ALOMY); assay: Pre-emergence herbicidal action against ALOMY; conditions: 320 g/ha; scored visually after about 3 weeks; 100% = plants have died
In short: (§4)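 Seeds sown in pots and covered with soil; WP or EC formulations sprayed onto the soil surface at 600 l/ha water with 0.5% additive, at 320 g/ha or lower. Greenhouse growth for about 3 weeks, then visual scoring as % effect against untreated controls (100% = plants dead).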

[13] = system: Amaranthus retroflexus (AMARE); assay: Pre-emergence herbicidal action against AMARE; conditions: 320 g/ha, visual scoring after about 3 weeks vs untreated controls
In short: as §4

[14] = system: Digitaria sanguinalis (DIGSA); assay: Pre-emergence herbicidal action against DIGSA; conditions: dosage 320 g/ha
In short: as §4

[15] = system: Lolium rigidum (LOLRI); assay: Pre-emergence herbicidal action against LOLRI; conditions: dosage 320 g/ha
In short: as §4

[16] = system: Polygonum convolvulus (POLCO); assay: Pre-emergence herbicidal action against POLCO; conditions: dosage 320 g/ha
In short: as §4

[17] = system: Viola tricolor (VIOTR); assay: Pre-emergence herbicidal action against VIOTR
In short: as §4

[18] = system: Alopecurus myosuroides (ALOMY); assay: Post-emergence herbicidal action against ALOMY; conditions: 320 g/ha, visual rating about 3 weeks after treatment vs untreated controls (100% = plants have died, 0% = like control plants)
In short: as §2

[19] = system: Avena fatua (AVEFA); assay: Post-emergence herbicidal action against AVEFA; conditions: 320 g/ha, visual rating about 3 weeks after treatment
In short: as §2

[20] = system: Digitaria sanguinalis (DIGSA); assay: Post-emergence herbicidal action against DIGSA; conditions: 320 g/ha, visual rating about 3 weeks after treatment
In short: as §2

[21] = system: Polygonum convolvulus (POLCO); assay: Post-emergence herbicidal action against POLCO
In short: as §2

[22] = system: Viola tricolor (VIOTR); assay: Post-emergence herbicidal action against VIOTR
In short: as §2

[23] = system: Avena fatua (AVEFA); assay: Pre-emergence herbicidal action against AVEFA; conditions: 320 g/ha, visual scoring after about 3 weeks vs untreated controls
In short: as §4

[24] = system: Echinochloa crus-galli (ECHCG); assay: Post-emergence herbicidal action against ECHCG
In short: as §2

[25] = system: Setaria viridis (SETVI); assay: Pre-emergence herbicidal action against SETVI; conditions: dosage 320 g/ha
In short: as §4

[26] = system: Verconica persica (VERPE); assay: Pre-emergence herbicidal action against VERPE; conditions: dosage 320 g/ha
In short: as §4

[27] = system: Echinochloa crus-galli (ECHCG); assay: Pre-emergence herbicidal action against ECHCG; conditions: dosage 320 g/ha
In short: as §4

[28] = system: Matricaria inodora (MATIN); assay: Pre-emergence herbicidal action against MATIN
In short: as §4

[29] = system: Triticum aestivum (TRZAS); conditions: pre-emergence, 80 g/ha, crop plant compatibility, in comparison to untreated controls
In short: as §1

[30] = 80 g/ha, effect in comparison to untreated controls
[31] = 320 g/ha, effect in comparison to untreated controls

Compound	Pre-emergence action against BRSNW in % ([1]; 80 g/ha)	Pre-emergence action against GLXMA in % [2]	Pre-emergence action against ORYSA in % ([3]; 80 g/ha)	Pre-emergence action against ORYSA in % ([3]; 320 g/ha)	Pre-emergence action against ZEAMX in % ([4]; 80 g/ha)	Pre-emergence action against ZEAMX in % ([4]; 320 g/ha)	Post-emergence action against AMARE in % [5]	Post-emergence action against LOLRI in % [6]	Post-emergence action against PHBPU in % ([7]; dosage 320 g/ha)	Post-emergence action against SETVI in % [8]	Post-emergence action against ORYSA in % [9, 30]	Post-emergence action against ORYSA in % [9, 31]	Post-emergence action against TRZAS in % [10]	Post-emergence action against ZEAMX in % ([11]; 80 g/ha)	Pre-emergence action against ALOMY [12]	Pre-emergence action against AMARE in % [13]	Pre-emergence action against LOLRI in % [15]	Pre-emergence action against POLCO in % [16]	Pre-emergence action against VIOTR in % ([17]; 320 g/ha, Viola tricolor)	Post-emergence action against AVEFA in % [19]	also measured
CCOC(=O)COc1nn(-c2ncccc2OC)c(-c2ccc(F)nc2)c1Br [Example I-371]	0%	20%	0%	0%	0%	10%	80%	90%	80%	80%	0%	0%	20%	20%	–	–	–	–	–	–	Pre-emergence action against BRSNW in % ([1]; 320 g/ha): 20%; Post-emergence action against ZEAMX in % ([11]; 320 g/ha): 20%
COC(=O)[C@@H](C)Oc1nn(-c2ccccn2)c(-c2ccc(Cl)nc2)c1Br [Example I-242]	20%	0%	–	–	0%	–	80%	80%	80%	–	0%	0%	–	10%	80%	100%	90%	80%	100%	80%	Pre-emergence action against DIGSA in % [14]: 90%; Post-emergence action against ALOMY in % [18]: 80%; Post-emergence action against DIGSA in % [20]: 80%; Post-emergence action against PHBPU in % ([7]; dosage 80 g/ha): 80%; Post-emergence action against POLCO in % ([21]; dosage 80 g/ha): 80%; Post-emergence action against POLCO in % ([21]; dosage 320 g/ha): 80%; Post-emergence action against VIOTR in % ([22]; 80 g/ha): 80%; Post-emergence action against VIOTR in % ([22]; 320 g/ha): 80%
COc1cccnc1-n1nc(OCC(=O)O)c(Cl)c1-c1ccc(F)nc1 [Example I-329]	0%	0%	0%	20%	0%	10%	–	–	80%	–	0%	0%	0%	0%	–	–	–	–	–	–	Post-emergence action against ZEAMX in % ([11]; 320 g/ha): 0%
CCOC(=O)C(C)Oc1nn(-c2ccccn2)c(-c2ccc(F)nc2)c1Br (racemic) [Example I-58]	0%	0%	0%	–	20%	–	–	80%	80%	–	0%	–	–	20%	90%	–	80%	90%	80%	90%	Pre-emergence action against AVEFA in % [23]: 80%; Post-emergence action against ALOMY in % [18]: 90%; Post-emergence action against ECHCG in % ([24]; dosage 320 g/ha): 80%
COC(=O)[C@@H](C)Oc1nn(-c2cccnc2F)c(-c2ccc(F)nc2)c1Br [II-36]	0%	0%	0%	–	20%	–	–	–	–	–	0%	–	–	–	100%	100%	80%	–	100%	–	Pre-emergence action against AVEFA in % [23]: 80%; Pre-emergence action against DIGSA in % [14]: 100%; Pre-emergence action against SETVI in % [25]: 80%; Pre-emergence action against VERPE in % [26]: 80%; Pre-emergence action against VIOTR in % ([17]; dosage 80 g/ha): 80%; Post-emergence action against VIOTR in % ([22]; 80 g/ha): 80%; Post-emergence action against ORYSA in % ([9]; 20 g/ha, effect vs untreated controls): 0%
COC(=O)CNC(=O)CSc1nn(-c2ccccn2)c(-c2cncnc2)c1Br [Example I-65]	20%	20%	–	–	–	–	80%	–	–	80%	0%	0%	–	–	80%	90%	90%	90%	100%	80%	Pre-emergence action against ECHCG in % [27]: 90%; Pre-emergence action against MATIN in % ([28]; dosage 80 g/ha): 80%; Pre-emergence action against MATIN in % ([28]; dosage 320 g/ha): 90%; Pre-emergence action against SETVI in % [25]: 90%; Pre-emergence action against VERPE in % [26]: 80%; Pre-emergence action against TRZAS in % [29]: 20%; Post-emergence action against ECHCG in % ([24]; dosage 80 g/ha): 80%; Post-emergence action against ECHCG in % ([24]; dosage 320 g/ha): 80%; Post-emergence action against POLCO in % ([21]; dosage 320 g/ha): 80%
